Like-named read-outs stand apart in the source and are kept apart here.
Columns and labels:
[1] = Stability experiments for solid forms of Compound 1 (temperature and humidity, XRPD); type: physicochemical
Excerpt: The physical stability of polymorph Form A was characterized. […] Samples of Form A exposed to 53, 75, and 85% relative humidity at ambient temperature (10 days) were also unchanged, as determined by XRPD.
The physical stability of polymorph Form B was characterized.
The physical stability of the amorphous material was characterized.

Phytophthora infestans [2] = type: in vivo
[3] = tested on: Pseudoperonospora cubensis; test: Test J: cucumber downy mildew, spray before inoculation, cucumber seedlings, mixtures with Colby expected values; type: in vivo; conditions: Table C
Excerpt: General protocol for preparing test compositions for Tests I-K: Amisulbrom was formulated and ametoctradin was obtained as unformulated, technical-grade materials. Compound 1 were formulated as an oil dispersion containing a mixture of POE (polyoxyethylene) 40 sorbitol hexaoleate, POE 20 sorbitan trioleate, and alkyl-peg resin surfactants in a liquid carrier consisting of a distilled C18 fatty acid methyl ester. Ametoctradin was first dissolved in acetone and then suspended at the desired concentration (in ppm) in acetone and purified water (50/50 mix by volume) containing 250 ppm of the surfactant Trem® 014 (polyhydric alcohol esters). Amisulbrom was dispersed in sufficient water to give the desired concentration, and neither organic solvent nor surfactant was added to the suspension. The resulting test mixtures were then used in Tests I-K. Spraying a 200 ppm test mixture to the point of run-off on the test plants was the equivalent of a rate of 800 g/ha. The tests were replicated three times and the results reported as the mean average of the three replicates.
The presence of a synergistic effect between two active ingredients was established with the aid of the Colby equation (see Colby, S. R. “Calculating Synergistic and Antagonistic Responses of Herbicide Combinations”, Weeds, (1967), 15, 20-22):
Using the method of Colby, the presence of a synergistic interaction between two active ingredients is established by first calculating the predicted activity, p, of the mixture based on activities of the two components applied alone. If p is lower than the experimentally established effect, synergism has occurred. In the equation above, A is the fungicidal activity in percentage control of one component applied alone at rate x. The B term is the fungicidal activity in percentage control of the second component applied at rate y. The equation estimates p, the expected fungicidal activity of the mixture of A at rate x with B at rate y if their effects are strictly additive and no interaction has occurred.
The test mixture was sprayed to the point of run-off on cucumber seedlings. The following day the seedlings were inoculated with a spore suspension of Pseudoperonospora cubensis (the causal agent of cucumber downy mildew) and incubated in saturated atmosphere at 20° C. for 24 h, and moved to a growth chamber at 20° C. for 6 days, after which time disease ratings were made.
Results for Tests I to K are given in Tables C-E. Each table corresponds to a set of evaluations performed together at the same time. In each table, a rating of 100 indicates 100% disease control and a rating of 0 indicates no disease control (relative to the controls). Columns labeled “Obsd” indicate the average of results observed from three replications. Columns labeled “Exptd” indicate the expected value for each treatment mixture using the Colby equation.

Phytophthora infestans [4] = type: in vivo; conditions: Table E
[5] = Relative stability experiments for polymorph Form A and Form B (DSC heat of fusion rule, competitive interconversion); type: physicochemical
Procedure: Differential scanning calorimetry was performed on a Thermal Analysis Q2000 Differential Scanning Calorimeter. A sample (2.3 mg) was placed in an aluminum DSC pan. The sample cell was heated under a nitrogen purge at 10° C./minute. Indium metal was used as the calibration standard.
The relative stability of polymorphic Forms A and B of Compound 1 was characterized with Differential Scanning Calorimetry and a competitive interconversion experiment. Phase transitions of solids can be thermodynamically reversible or irreversible. Crystalline polymorphs which transform reversibly at a specific transition temperature (Ttr) are called enantiotropic polymorphs. If the crystalline polymorphs are not interconvertable, the system is monotropic (i.e. one polymorph is thermodynamically stable relative to the other over the entire temperature range up to melting). The relationship between forms can be determined by the application of the heat of fusion rule (Burger, A.; Ramberger, R. Mikrochim. Acta [Wein], 1979 II, 259-271). The rule states that if the higher melting form has the lower heat of fusion, then the two forms are enantiotropic. Otherwise, they are monotropic.
To support this conclusion, a competitive interconversion experiment between polymorph Forms A and B was performed in ethanol at room temperature. […]

[6] = Table C, component (b) alone 0.08 ppm
[7] = Table C, component (b) alone 0.4 ppm
[8] = Table C, component (b) alone 2 ppm
[9] = Table C, component (b) alone 10 ppm
[10] = Table C, component (b) alone 40 ppm
[11] = Table D, component (b) alone 0.08 ppm
[12] = Table D, component (b) alone 0.4 ppm
[13] = Table D, component (b) alone 2 ppm
[14] = Table D, component (b) alone 10 ppm

## Cc1cc(C(F)(F)F)nn1CC(=O)N1CCC(c2nc(C3=NOC(c4c(F)cccc4F)C3)cs2)CC1 (stereo not drawn) [Amorphous Compound 1, 1-[4-[4-[5-(2,6-difluorophenyl)-4,5-dihydro-3-isoxazolyl]-2-thiazolyl]-1-piperidinyl]-2-[5-methyl-3-(trifluoromethyl)-1H-pyrazol-1-yl]ethanone]
[1]; elevated temperatures (60, 80 and 100° C.) and humidities (75 and 85% relative humidity) for 10-12 days
  physical stability by XRPD: remained unchanged
[1]
  stability of the pure solid form (summary of Characterization Example 4): stable and non-hydrated

## Cc1c(Br)c2ccc(F)cc2n1S(=O)(=O)c1ncn(S(=O)(=O)N(C)C)n1 [Amisulbrom, amisulbrom]
Phytophthora infestans [2]; [6]
  Test I Obsd: 57%
Phytophthora infestans [2]; [7]
  Test I Obsd: 52%
Phytophthora infestans [2]; [8]
  Test I Obsd: 82%
Phytophthora infestans [2]; [9]
  Test I Obsd: 100%
Phytophthora infestans [2]; [10]
  Test I Obsd: 100%
Phytophthora infestans [2]; Table D, component (b) alone 0.016 ppm
  Test I Obsd: 0%
Phytophthora infestans [2]; [11]
  Test I Obsd: 9%
Phytophthora infestans [2]; [12]
  Test I Obsd: 63%
Phytophthora infestans [2]; [13]
  Test I Obsd: 85%
Phytophthora infestans [2]; [14]
  Test I Obsd: 86%
[3]; component (b) alone 0.08 ppm
  Test J Obsd: 0%
[3]; component (b) alone 0.4 ppm
  Test J Obsd: 0%
[3]; component (b) alone 2 ppm
  Test J Obsd: 95%
[3]; component (b) alone 10 ppm
  Test J Obsd: 100%
[3]; component (b) alone 40 ppm
  Test J Obsd: 100%
Phytophthora infestans [4]; component (b) alone 0.4 ppm
  Test K Obsd: 0%
Phytophthora infestans [4]; component (b) alone 2 ppm
  Test K Obsd: 0%
Phytophthora infestans [4]; component (b) alone 10 ppm
  Test K Obsd: 0%
Phytophthora infestans [4]; component (b) alone 40 ppm
  Test K Obsd: 0%
Phytophthora infestans [4]; component (b) alone 200 ppm
  Test K Obsd: 0%

## Cc1cc(C(F)(F)F)nn1CC(=O)N1CCC(c2nc(C3=NOC(c4c(F)cccc4F)C3)cs2)CC1 (racemic) [polymorph Form B, 1-[4-[4-[5-(2,6-difluorophenyl)-4,5-dihydro-3-isoxazolyl]-2-thiazolyl]-1-piperidinyl]-2-[5-methyl-3-(trifluoromethyl)-1H-pyrazol-1-yl]ethanone]
[1]; exposed to 85% relative humidity at ambient temperature (10 days)
  physical stability by XRPD: unchanged
[1]; maintained at 40° C. and 25° C. for 4 days
  physical stability by XRPD: remained unchanged
[5]; DSC data of Characterization Example 3, forms monotropically related
  relative stability by heat of fusion rule from DSC data: most stable form throughout the temperature range up to the melt
[5]; equal amounts of Forms A and B in saturated ethanol, room temperature, stirred 4 days, solids identified by XRPD
  relative stability, competitive interconversion experiment: more stable than polymorph Form A

## CCCCCCCCc1c(CC)nc2ncnn2c1N [Ametoctradin, ametoctradin]
Phytophthora infestans [2]; [6]
  Test I Obsd: 8%
Phytophthora infestans [2]; [7]
  Test I Obsd: 23%
Phytophthora infestans [2]; [8]
  Test I Obsd: 63%
Phytophthora infestans [2]; [9]
  Test I Obsd: 83%
Phytophthora infestans [2]; [10]
  Test I Obsd: 83%
Phytophthora infestans [2]; [11]
  Test I Obsd: 9%
Phytophthora infestans [2]; [12]
  Test I Obsd: 0%
Phytophthora infestans [2]; [13]
  Test I Obsd: 0%
Phytophthora infestans [2]; [14]
  Test I Obsd: 94%
Phytophthora infestans [2]; Table D, component (b) alone 40 ppm
  Test I Obsd: 93%
[3]; component (b) alone 0.08 ppm
  Test J Obsd: 0%
[3]; component (b) alone 0.4 ppm
  Test J Obsd: 0%
[3]; component (b) alone 2 ppm
  Test J Obsd: 0%
[3]; component (b) alone 10 ppm
  Test J Obsd: 26%
[3]; component (b) alone 40 ppm
  Test J Obsd: 95%
Phytophthora infestans [4]; component (b) alone 0.4 ppm
  Test K Obsd: 0%
Phytophthora infestans [4]; component (b) alone 2 ppm
  Test K Obsd: 0%
Phytophthora infestans [4]; component (b) alone 10 ppm
  Test K Obsd: 0%
Phytophthora infestans [4]; component (b) alone 40 ppm
  Test K Obsd: 0%
Phytophthora infestans [4]; component (b) alone 200 ppm
  Test K Obsd: 0%

## Cc1cc(C(F)(F)F)nn1CC(=O)N1CCC(c2nc(C3=NOC(c4c(F)cccc4F)C3)cs2)CC1 (racemic) [polymorph Form A, 1-[4-[4-[5-(2,6-difluorophenyl)-4,5-dihydro-3-isoxazolyl]-2-thiazolyl]-1-piperidinyl]-2-[5-methyl-3-(trifluoromethyl)-1H-pyrazol-1-yl]ethanone]
[1]; exposed to 53, 75, and 85% relative humidity at ambient temperature (10 days)
  physical stability by XRPD: unchanged
[1]; maintained at 40, 60, and 80° C. for 4 days
  physical stability by XRPD: remained unchanged
[1]
  stability of the pure solid form (summary of Characterization Example 4): physically stable and non-hydrated

## Cc1cc(C(F)(F)F)nn1CC(=O)N1CCC(c2nc(C3=NOC(c4c(F)cccc4F)C3)cs2)CC1 (racemic) [Compound 1, 1-[4-[4-[5-(2,6-difluorophenyl)-4,5-dihydro-3-isoxazolyl]-2-thiazolyl]-1-piperidinyl]-2-[5-methyl-3-(trifluoromethyl)-1H-pyrazol-1-yl]ethanone]
Phytophthora infestans [2]; Table C, Compound 1 alone 0.00001 ppm
  Test I Obsd: 39%
Phytophthora infestans [2]; Table C, Compound 1 alone 0.0001 ppm
  Test I Obsd: 63%
Phytophthora infestans [2]; Table C, Compound 1 alone 0.001 ppm
  Test I Obsd: 72%
Phytophthora infestans [2]; Table C, Compound 1 alone 0.01 ppm
  Test I Obsd: 100%
Phytophthora infestans [2]; Table C, Compound 1 alone 0.1 ppm
  Test I Obsd: 100%
Phytophthora infestans [2]; Table D, Compound 1 alone 0.00001 ppm
  Test I Obsd: 0%
Phytophthora infestans [2]; Table D, Compound 1 alone 0.0001 ppm
  Test I Obsd: 0%
Phytophthora infestans [2]; Table D, Compound 1 alone 0.001 ppm
  Test I Obsd: 80%
Phytophthora infestans [2]; Table D, Compound 1 alone 0.01 ppm
  Test I Obsd: 93%
Phytophthora infestans [2]; Table D, Compound 1 alone 0.1 ppm
  Test I Obsd: 100%
[3]; Compound 1 alone 0.00001 ppm
  Test J Obsd: 17%
[3]; Compound 1 alone 0.0001 ppm
  Test J Obsd: 47%
[3]; Compound 1 alone 0.001 ppm
  Test J Obsd: 40%
[3]; Compound 1 alone 0.01 ppm
  Test J Obsd: 94%
[3]; Compound 1 alone 0.1 ppm
  Test J Obsd: 100%
Phytophthora infestans [4]; Compound 1 alone 0.001 ppm
  Test K Obsd: 0%
Phytophthora infestans [4]; Compound 1 alone 0.01 ppm
  Test K Obsd: 17%
Phytophthora infestans [4]; Compound 1 alone 0.1 ppm
  Test K Obsd: 80%
Phytophthora infestans [4]; Compound 1 alone 1 ppm
  Test K Obsd: 99%
Phytophthora infestans [4]; Compound 1 alone 10 ppm
  Test K Obsd: 100%
